From patent US20230112450A1, “COMBINED USE OF CTB006 AND PONATINIB” (Beijing Sinotau Bio-Pharmaceuticals Technology Co., Ltd., priority 2020, published 2023)

Tests used:
[1] = test system: PDX model CS266; experiment: Gastric cancer PDX transplantation tumor model; details: day 31; CTB006 10 mg/kg iv qd, Ponatinib 30 mg/kg p.o qd
Method: To test the in vivo pharmacodynamic efficacy of CTB006 in combination with Ponatinib, several tumor animal models were selected for testing, including pancreatic cancer cells MIA-PACA-2 CDX model and multiple PDX models covering multiple cancers of intestinal cancer (CS237, CS263, CS264), lung cancer (CS225), and gastric cancer (CS266, GAS033).
(§4) Patient-derived transplantation tumor models were established subcutaneously in nude mice or NOD/SCID mice, which was administered with CTB006 alone (10 mg/kg, iv, qd), Ponatinib alone (30 mg/kg, p.o, qd) the combination of them, while the control group was given an equal volume of saline.
At day 31 after administration, when the mean tumor volume of the negative control group and CTB006 alone group reached 1 cm^3, the negative control group was sacrificed, and the administration was stopped for 5-Fu positive control group, Ponatinib alone group and the combination group and the observation continued.

[2] = test system: PDX model CS264; experiment: Colorectal cancer PDX transplantation tumor model; assay type: in vivo, nude mice or NOD/SCID mice; details: day 32 after administration; CTB006 10 mg/kg iv qd, Ponatinib 30 mg/kg p.o qd
Excerpt: (§5) To test the in vivo pharmacodynamic efficacy of CTB006 in combination with Ponatinib, several tumor animal models were selected for testing, including pancreatic cancer cells MIA-PACA-2 CDX model and multiple PDX models covering multiple cancers of intestinal cancer (CS237, CS263, CS264), lung cancer (CS225), and gastric cancer (CS266, GAS033). For mathematical statistics, ANOVA analysis was used, and P<0.05 indicates a statistically significant difference and is marked with *; P<0.01 indicates a highly significant statistical difference and is marked with **.
as §4

[3] = test system: PDX model CS237; experiment: Colorectal cancer PDX transplantation tumor model; assay type: in vivo, nude mice or NOD/SCID mice; details: day 52 after administration; CTB006 10 mg/kg iv qd, Ponatinib 30 mg/kg p.o qd
Excerpt: as §5, §4

[4] = test system: PDX model GAS033; experiment: Gastric cancer PDX transplantation tumor model; assay type: in vivo, nude mice or NOD/SCID mice; details: day 16 after administration; CTB006 10 mg/kg iv qd, Ponatinib 30 mg/kg p.o qd
Excerpt: as §5, §4

[5] = test system: MIA-Paca-2 transplanted tumor; experiment: Pancreatic cancer CDX model, subcutaneous transplantation; details: CTB006 10 mg/kg iv qw, Ponatinib 30 mg/kg p.o qd, alone or in combination, 22 days; euthanized at tumor volume 1 cm^3
Method: The CDX model was established by subcutaneous transplantation of MIA-Paca-2 in BALB/c nude mice (Vital River), and drug administration was started when the tumor volume was about 0.1 cm^3, and when it reached 1 cm^3, the animals were ethically euthanized and survival time was recorded. CTB006 (10 mg/kg, iv, qw) and Ponatinib (30 mg/kg, p.o, qd) were administered alone or in combination for treatment groups, and the control group was administered an equal volume of saline.

[6] = test system: SK-HEP-1 cells; experiment: Tumor cell survival by ATPlite after 24 h incubation; CDI; assay type: cell-based
Method: (§1) The interaction between CTB006 antibody and Ponatinib: we used coefficient of drug interaction (CDI)^[1,2] to evaluate the combined effect of CTB006 antibody and chemotherapeutic drugs. CDI was calculated according to the following formula: CDI=AB/A×B; AB was the ratio of the detection values of the two-drug combination group to the control group (survival rate of the drug combination group), and A or B was the ratio of the detection values of each individual drug to the control group (survival rate of the drug alone group).
(§2) The survival of each tumor cell was observed by ATPlite method after incubation at 37° C., 5% CO2 for 24 h.

[7] = test system: N87 cells; experiment: as above; assay type: cell-based
Method: as §1, §2

[8] = test system: Huh-1 cells; experiment: as above; assay type: cell-based
Method: as §1, §2

[9] = test system: SGC-7901 cells; experiment: as above; assay type: cell-based
Method: as §1, §2

[10] = test system: HT29 cells; experiment: as above; assay type: cell-based
Method: as §1, §2

[11] = test system: TE1 cells; experiment: as above; assay type: cell-based
Method: as §1, §2

[12] = test system: S2Lm7AA cells; experiment: as above; assay type: cell-based
Method: as §1, §2

[13] = test system: primary tumor cells S2; experiment: Killing of primary tumor cells from ovarian cancer ascites; CDI; assay type: cell-based
Method: as §1, §2

[14] = test system: primary tumor cells S1; experiment: as above; assay type: cell-based
Method: as §1, §2

[15] = test system: MCF-7 cells; experiment: Tumor cell survival by ATPlite after 24 h incubation; CDI; assay type: cell-based; details: for CDI: DR5 agonist in combination with Ponatinib
Method: as §1, §2
(§3) Methods were as described above.

[16] = test system: S2VP10 cells; experiment: as above; assay type: cell-based; details: for CDI: DR5 agonist in combination with Ponatinib
Method: as §1, §2, §3

[17] = test system: A549 cells; experiment: as above; assay type: cell-based; details: for CDI: DR5 agonist in combination with Ponatinib
Method: as §1, §2, §3

[18] = test system: PDX model CS263; experiment: Colorectal cancer PDX transplantation tumor model
Excerpt: as §5, §4

[19] = test system: PDX model CS225; experiment: Lung cancer PDX transplantation tumor model; assay type: in vivo, nude mice or NOD/SCID mice; details: day 28 after administration; CTB006 10 mg/kg iv qd, Ponatinib 30 mg/kg p.o qd
Excerpt: as §5, §4

O=c1[nH]cc(F)c(=O)[nH]1 [5-Fu]
tumor inhibition rates (TGI) [1]: 57.5% | tumor inhibition rates (TGI) [2]: 31.2%

Cc1ccc(C(=O)Nc2ccc(CN3CCN(C)CC3)c(C(F)(F)F)c2)cc1C#Cc1cnc2cccnn12 [Ponatinib]
tumor inhibition rate (TGI) [3]: 43.8% | tumor inhibition rate (TGI) [4]: 37% | tumor inhibition rates (TGI) [1]: 87.7% | median survival time [5]: 34.5 days | Survival Rate (%) ([6]; Ponatinib alone 15.625 nM): 95.48% | Survival Rate (%) ([6]; Ponatinib alone 31.25 nM): 92.47% | Survival Rate (%) ([6]; Ponatinib alone 62.5 nM): 92.34% | Survival Rate (%) ([6]; Ponatinib alone 125 nM): 84.53% | Survival Rate (%) ([6]; Ponatinib alone 250 nM): 77.45% | Survival Rate (%) ([6]; Ponatinib alone 500 nM): 68.54% | Survival Rate (%) ([6]; Ponatinib alone 1000 nM): 67.85% | Survival Rate (%) ([7]; Ponatinib alone 15.625 nM): 87.89% | Survival Rate (%) ([7]; Ponatinib alone 31.25 nM): 83.79% | Survival Rate (%) ([7]; Ponatinib alone 62.5 nM): 84.36% | Survival Rate (%) ([7]; Ponatinib alone 125 nM): 83.71% | Survival Rate (%) ([7]; Ponatinib alone 250 nM): 82.65% | Survival Rate (%) ([7]; Ponatinib alone 500 nM): 84.46% | Survival Rate (%) ([7]; Ponatinib alone 1000 nM): 82.19% | Survival Rate (%) ([8]; Ponatinib alone 15.625 nM): 97.49% | Survival Rate (%) ([8]; Ponatinib alone 31.25 nM): 92.59% | Survival Rate (%) ([8]; Ponatinib alone 62.5 nM): 91.15% | Survival Rate (%) ([8]; Ponatinib alone 125 nM): 83.68% | Survival Rate (%) ([8]; Ponatinib alone 250 nM): 79.87% | Survival Rate (%) ([8]; Ponatinib alone 500 nM): 70.61% | Survival Rate (%) ([8]; Ponatinib alone 1000 nM): 64.68% | Survival Rate (%) ([9]; Ponatinib alone 15.625 nM): 100.08% | Survival Rate (%) ([9]; Ponatinib alone 31.25 nM): 98.30% | Survival Rate (%) ([9]; Ponatinib alone 62.5 nM): 99.90% | Survival Rate (%) ([9]; Ponatinib alone 125 nM): 95.83% | Survival Rate (%) ([9]; Ponatinib alone 250 nM): 86.80% | Survival Rate (%) ([9]; Ponatinib alone 500 nM): 75.77% | Survival Rate (%) ([9]; Ponatinib alone 1000 nM): 61.42% | Survival Rate (%) ([10]; Ponatinib alone 15.625 nM): 102.78% | Survival Rate (%) ([10]; Ponatinib alone 31.25 nM): 103.51% | Survival Rate (%) ([10]; Ponatinib alone 62.5 nM): 102.93% | Survival Rate (%) ([10]; Ponatinib alone 125 nM): 95.77% | Survival Rate (%) ([10]; Ponatinib alone 250 nM): 84.39% | Survival Rate (%) ([10]; Ponatinib alone 500 nM): 87.91% | Survival Rate (%) ([10]; Ponatinib alone 1000 nM): 80.77% | Survival Rate (%) ([11]; Ponatinib alone 15.625 nM): 107.94% | Survival Rate (%) ([11]; Ponatinib alone 31.25 nM): 103.25% | Survival Rate (%) ([11]; Ponatinib alone 62.5 nM): 104.04% | Survival Rate (%) ([11]; Ponatinib alone 125 nM): 100.27% | Survival Rate (%) ([11]; Ponatinib alone 250 nM): 97.30% | Survival Rate (%) ([11]; Ponatinib alone 500 nM): 89.97% | Survival Rate (%) ([11]; Ponatinib alone 1000 nM): 73.00% | Survival Rate (%) ([12]; Ponatinib alone 15.625 nM): 90.79% | Survival Rate (%) ([12]; Ponatinib alone 31.25 nM): 90.05% | Survival Rate (%) ([12]; Ponatinib alone 62.5 nM): 85.82% | Survival Rate (%) ([12]; Ponatinib alone 125 nM): 87.89% | Survival Rate (%) ([12]; Ponatinib alone 250 nM): 79.85% | Survival Rate (%) ([12]; Ponatinib alone 500 nM): 76.76% | Survival Rate (%) ([12]; Ponatinib alone 1000 nM): 77.11% | Survival Rate (%) ([13]; Ponatinib alone 25 nM): 101.93% | Survival Rate (%) ([13]; Ponatinib alone 50 nM): 109.27% | Survival Rate (%) ([13]; Ponatinib alone 100 nM): 98.46% | Survival Rate (%) ([13]; Ponatinib alone 200 nM): 90.46% | Survival Rate (%) ([14]; Ponatinib alone 25 nM): 89.60% | Survival Rate (%) ([14]; Ponatinib alone 50 nM): 101.09% | Survival Rate (%) ([14]; Ponatinib alone 100 nM): 85.81% | Survival Rate (%) ([14]; Ponatinib alone 200 nM): 82.23% | Survival Rate (%) ([15]; Ponatinib alone 15.625 nM): 102.70% | Survival Rate (%) ([15]; Ponatinib alone 62.5 nM): 103.26% | Survival Rate (%) ([15]; Ponatinib alone 250 nM): 94.14% | Survival Rate (%) ([15]; Ponatinib alone 1000 nM): 68.81% | Survival Rate (%) ([16]; Ponatinib alone 15.625 nM): 98.02% | Survival Rate (%) ([16]; Ponatinib alone 31.25 nM): 97.47% | Survival Rate (%) ([16]; Ponatinib alone 62.5 nM): 99.87% | Survival Rate (%) ([16]; Ponatinib alone 125 nM): 96.84% | Survival Rate (%) ([16]; Ponatinib alone 250 nM): 87.54% | Survival Rate (%) ([16]; Ponatinib alone 500 nM): 75.12% | Survival Rate (%) ([16]; Ponatinib alone 1000 nM): 69.06% | Survival Rate (%) ([17]; Ponatinib alone 15.625 nM): 101.54% | Survival Rate (%) ([17]; Ponatinib alone 31.25 nM): 106.99% | Survival Rate (%) ([17]; Ponatinib alone 62.5 nM): 105.05% | Survival Rate (%) ([17]; Ponatinib alone 125 nM): 107.07% | Survival Rate (%) ([17]; Ponatinib alone 250 nM): 104.14% | Survival Rate (%) ([17]; Ponatinib alone 500 nM): 93.76% | Survival Rate (%) ([17]; Ponatinib alone 1000 nM): 81.32% | tumor inhibition rates (TGI) [2]: 32.4% | tumor inhibition rates (TGI) ([18]; day 44 after administration, CTB006 10 mg/kg iv qd, Ponatinib 30 mg/kg p.o qd): 45.3% | median survival ([18]; time to reach the mean tumor volume of 1.0 cm^3 as cutoff, administration stopped at day 44): 56 days | tumor inhibition rates (TGI) [19]: 50%

CC(=O)O[C@H]1C(=O)[C@@]2(C)[C@H]([C@H](OC(=O)c3ccccc3)[C@]3(O)C[C@H](OC(=O)[C@H](O)[C@@H](NC(=O)c4ccccc4)c4ccccc4)C(C)=C1C3(C)C)[C@]1(OC(C)=O)CO[C@@H]1C[C@@H]2O [Taxol]
tumor inhibition rates (TGI) [19]: 50%

AMG655: DR5 agonistic monoclonal antibody Conatumumab (AMG655, Amgen)
CDI [15]: 0.317 | killing effect ([15]; drug alone): significant killing effect | killing effect ([15]; used in combination): more significant | CDI [16]: 0.8123 | CDI [17]: 0.6362

B1: TRAIL: DR5 natural ligand TRAIL (Sino Biological) (protein, UniProt P50591 1-281, looked up)
Tumor necrosis factor ligand …: MAMMEVQGGPSLGQTCVLIVIFTVLLQSLCVAVTYVYFTNELKQMQDKYSKSGIACFLKEDDSYWDPNDEESMNSPCWQVKWQLRQLVRKMILRTSEETISTVQEKQQNISPLVRERGPQRVAAHITGTRGRSNTLSSPNSKNEKALGRKINSWESSRSGHSFLSNLHLRNGELVIHEKGFYYIYSQTYFRFQEEIKENTKNDKQMVQYIYKYTSYPDPILLMKSARNSCWSKDAEYGLYSIYQGGIFELKENDRIFVSVTNEHLIDMDHEASFFGAFLVG
CDI [15]: 0.3303 | killing effect ([15]; drug alone): did not have a significant killing effect | CDI [16]: 0.5179 | CDI [17]: 0.7329
